Literature values as cited in patent publication US20080248136A1, “ACUTE AND CHRONIC HEARTBURN COMPOSITION AND METHOD” (IOMEDIX DEVELOPMENT INTERNATIONAL SRL, priority 2006, published 2008).
Blank lines part the entries; values can stand above or below the compound they belong to.

Experiments:
[1] = test system: mitogen-activated protein kinase signaling; conditions: signaling stimulated by H. Pylori
[2] = mice
[3] = in vivo

effect on mitogen-activated protein kinase signaling [1]: inhibits
SMILES: C=C(C)[C@@H]1CC=C(C(=O)O)CC1 [perillic acid]

SMILES: C=C(C)[C@H]1CC=C(C)CC1 [limonene]
participants achieving complete relief of symptoms (after 2 days of administration): 20% | severity of gastric and esophageal reflux disorder symptoms, as evaluated by subjects (daily or every other day administration, after 14 days): near complete relief of the symptoms | lasting alleviation of symptoms of gastric and esophageal reflux disorders (in certain cases): alleviated permanently | antinociceptive activity [2]: has antinociceptive activity

SMILES: [Mg+2].[OH-].[OH-] [magnesium hydroxide]
esophageal pH [3]: significantly increased | gastric pH versus placebo [3]: increased gastric pH above placebo levels

SMILES: O=C([O-])[O-].[Ca+2] [calcium carbonate]
esophageal pH [3]: significantly increased | gastric pH versus placebo [3]: remained at or below placebo levels
